“Also recorded” adds a separate entry of the source. Like-named read-outs stand apart in the source and are kept apart here. Non-standard residues stand in square brackets, D forms with d. Residues, ends and D or L forms follow the SMILES beside them. No end group written: not given here.
What was measured:
[1] = 25% aqueous pooled mouse serum (Sigma); details: 37° C., up to 8 hours
[2] = 25% aqueous pooled human serum (Sigma), human 1, approximately 1 year old; details: 37° C., up to 8 hours
[3] = 25% aqueous pooled human serum (Sigma), human 2, approximately 1 month old; details: 37° C., up to 8 hours
[4] = system: Agrobacterium tumefaciens; details: read-out: IC50 in μM against Agrobacterium tumefaciens; 30° C., 24 hours; for Peptide 22 original assay (a)
Method: (§1) Growth inhibition assays were performed using the peptides of Example 1 and the Gram positive microorganisms Micrococcus luteus and Bacillus megaterium, and the Gram negative microorganisms, Escherichia coli D22, Agrobacterium tumefaciens, and Salmonella typhimurium. Anti-bacterial assays were performed in sterilized 96-well plates (Nunc F96 microtiter plates) with a final volume of 100 μl as described in Bulet (1996), cited above. Briefly, 90 μl of a suspension of a midlogarithmic phase bacterial culture at an initial 600 nm UV absorbence of 0.001 in Luria-Bertani rich nutrient medium was added to 10 μl of serially diluted peptides in sterilized water. The final peptide concentrations ranged between 0.15 and 80 μM. The plates were incubated at 30° C. for 24 hours with gentle shaking, and the growth inhibition was measured by recording the increase of the UV absorbence at 600 nm on an SLT Labinstruments 400 ATC microplate reader. The experiments were conducted over a 7-month period.

Bacillus megaterium = details: read-out: IC50 in μM against Bacillus megaterium; 30° C., 24 hours; for Peptide 22 original assay (a)
Method: as §1

Escherichia coli D22 = details: read-out: IC50 in μM against Escherichia coli D22; 30° C., 24 hours; for Peptide 22 original assay (a)
Method: as §1

Micrococcus luteus = system: Micrococcus luteus
Method: as §1

Salmonella typhimurium = details: read-out: IC50 in μM against Salmonella typhimurium; 30° C., 24 hours; for Peptide 22 original assay (a)
Method: as §1

[5] = read-out: IC50 in μM against Micrococcus luteus, 30° C., 24 hours, for Peptide 22 original assay (a)

Row | Compound | cleaved bond [1] | cleaved bond [2] | fragment found [2] | cleaved bond [3] | IC50 [4] [µM] | IC50 (Bacillus megaterium) [µM] | IC50 (Escherichia coli D22) [µM] | IC50 (Micrococcus luteus; [5]) [µM] | IC50 (Salmonella typhimurium) [µM] | not cleaved [1] | not cleaved [2] | fragment found [3] | not cleaved [3] | IC50 (Micrococcus luteus; 24 h) [µM]
1 | VDKGSYLPRPTPPRPIYNRN | Arg19-Asn20, first_seen, 45 minute; also recorded: Asn18-Arg19, 45-minute | Arg19-Asn20, first_seen, 45 minute; also recorded: Asn18-Arg19, 45-minute; also recorded: Ser5-Tyr6, 45-minute | −C3, 45-minute; also recorded: −C6, 45-minute | Arg19-Asn20, first_seen, 45 minute; also recorded: Asn18-Arg19, 45-minute |  |  |  |  |  |  |  |  |  | 
2 | PTPPRPIYNRN [Peptide 15] |  |  |  |  | > 80 | > 80 | > 80 | > 80 | > 80 |  |  |  |  | 
3 | 1-aminocyclo-hexane carboxylic acid (Chex)-Pyrrhocoricin-β-acetyl-2,3-diamino propionic amide [Dap(Ac)] | Asn18-Arg19, 45-minute; also recorded: Ser5-Tyr6, 45-minute | Asn18-Arg19, 45-minute; also recorded: Ser5-Tyr6, 45-minute | −C3, 45-minute; also recorded: −N5, C2, 45-minute | Asn18-Arg19, 45-minute; also recorded: Ser5-Tyr6, 45-minute |  |  |  |  |  | −C1 not detected (0) after 45-minute digestion | −C1 not detected (0) after 45-minute digestion | −N5, C2, 45-minute | −C1 not detected (0) after 45-minute digestion | 
4 | VDKGSYLPRPTPPRPIYN [Peptide 25] |  |  |  |  | > 80 | > 80 | > 80 | > 80 | > 80 |  |  |  |  | 
5 | VDKGSYLPR [Peptide 14] |  |  |  |  | > 80 | > 80 | > 80 | > 80 | > 80 |  |  |  |  | 
6 | VDKGSYLPRPTPPRPIYNRN [Peptide 2, reference compound] |  |  |  |  | 0.3 | 40 | 0.3 | > 80 | 2.5 |  |  |  |  | 
7 | CC[C@@H](C)[C@@H](NC(=O)[C@H]1CCCN1C(=O)[C@@H](CCCNC(=N)N)NC(=O)[C@H]1CCCN1C(=O)[C@H]1CCCN1C(=O)[C@H](NC(=O)[C@H]1CCCN1C(=O)[C@@H](CCCNC(=N)N)NC(=O)[C@H]1CCCN1C(=O)[C@@H](CC(C)C)NC(=O)[C@@H](Cc1ccc(O)cc1)NC(=O)[C@@H](CO)NC(=O)CNC(=O)[C@@H](CCCCN)NC(=O)[C@@H](CC(=O)O)NC(=O)[C@H](N)C(C)C)[C@H](C)O)C(=O)N[C@H](Cc1ccc(O)cc1)C(=O)N[C@H](CC(N)=O)C(=O)N[C@H](CCCNC(=N)N)C(=O)N[C@H](CC(N)=O)C(N)=O [Peptide 13] (H-[dV][dD][dK]G[dS][dY][dL][dP][dR][dP][dT][dP][dP][dR][dP][dI][dY][dN][dR][dN]-NH2; N-terminus and C-terminus assumed) |  |  |  |  | > 80 | > 80 | > 80 |  | > 80 |  |  |  |  | 40
